In patent US20090196930A1, “AEROSOLIZED NITRITE AND NITRIC OXIDE -DONATING COMPOUNDS AND USES THEREOF” (Aires Pharmaceuticals, Inc., priority 2007, published 2009):
Where two headings read alike, the source gives them in different places.

Assays:
[1] = Experimental: High concentrations permit reduced administration times (important for patient compliance), but suffer in that their associated osmolality and intense taste may mitigate this advantage. […] Nebulized solutions were inhaled to a shallow throat level and analyzed for: taste (saltiness), throat irritation, and sore throat. […] Sodium chloride is also considered in the art as helpful to alleviate cough. Therefore, this was also tested.
Summary. […] Finally, because viscosity and surface tension can be important contributors to optimal I-neb (Respironics, Inc., Murrysville, Pa.), Aerogen Aeroneb Go (Aerogen, Inc., Galway, Ireland) or other vibrating mesh nebulizer performance, potential formulations were screened in these devices to measure the effect of formulation on device output rate and aerosol particle size.

in vivo [2] = details: male, Sprague-Dawley, rat, plasma, 10 mg/kg; for half-life: T1/2, rat
Sprague-Dawley rats = assay: 7-day inhalation dose range finding toxicology, rat
Experimental: Formulations. […] The formulations defined below were titrated by nebulization time to achieve the dose levels define in Table 21.
Results & Discussion (Rats). A 7-Day range-finding study with nebulized Formulation I Inhalation Solution was performed via inhalation through the nose of male and female Sprague-Dawley rats.

[3] = tested on: monocrotaline-induced pulmonary hypertension; details: for RV:LV + S: MCT 50 mg/kg sc, three times per week for four weeks
[4] = tested on: normal, healthy volunteers; details: human, device loaded sodium nitrite
Experimental: Vial 3 contained 0.1 mM sodium phosphate only. In the preliminary dose escalation to the maximum tolerated dose (MTD), immediately prior to administration, an equal portion of Vial 1 and Vial 2 were admixed and then diluted with Vial 3 contents as appropriate to achieve lower concentration dosing solutions for the dose-escalation protocol. Following establishment of the Vial 1+Vial 2 admixed test material MTD, additional dosing cohorts of 3 subjects were enrolled at the Vial 1+Vial 2 MTD, using Vial 3-diluted Vial 1 contents only.
Each subject also received vehicle control. The nebulizer used for this study was the Aerogen Idehaler. The Aerogen Idehaler is a combination of two units. The nebulization head is the Aeroneb® Solo (Aerogen, Galway, Ireland) and the aerosol-reservoir attachment Idehaler™ (Diffusion Technique Francais, Saint Etienne, France).

beagle dogs = assay: 7-day inhalation dose range finding toxicology, dog; format: in vivo
Experimental: Results & Discussion (Dogs). […] Dogs were exposed to either vehicle (citric acid/saccharin/sodium phosphate buffer), or Formulation I Inhalation Solution prepared in identical vehicle to achieve target doses of 2, 10 or 44 mg/kg/day for 7 days (Table 21). Administered doses were 2, 12 and 54 mg/kg/day. […] Methemoglobin levels in blood increased appreciably in the high-dose group and minimally above basal levels in the mid-dose group (Table 23). Gross necropsies of the treated groups were in general similar to controls which included the presence of small red foci in the lung area, were few in nature and not associated with a dose responsive test-article relationship. Histopathology included mild focal pneumonia with minimal to mild focal peribronchiolar/perivascular mononuclear cell infiltrate and minimal to mild focal alveolar mixed cell infiltrate in the lungs of both the vehicle and high dose groups (low- and mid-dose groups not examined). M/E ratios were decreased in high-dose group males. […] Therefore, based on the transient changes during this 7 day study, an NOAEL of 12 mg/kg/day was established.

[5] = tested on: monocrotaline-induced pulmonary hypertension; assay: Monocrotaline model of pulmonary hypertension, inhaled nebulized liquid sodium nitrite; details: rat, 5 μg/kg liquid aerosol
in vivo [6] = details: rat, plasma
Experimental: Rats (n=3-4/group, ˜400 gm) were anesthetized with Isoflorane and the dry powder was insufflated intratracheally using a Penn-Century Insufflator (model DP-4: Philadelphia, Pa.). Blood was collected in heparinized tubes just prior to dosing, 5, 15, 30 and 60 minutes after dosing, immediately put on wet ice and then centrifuged at 13,000 rpm in a microcentrifuge for 45 sec. Plasma was harvested and frozen at −80° C. until analysis.

[7] = tested on: hypoxia-induced pulmonary hypertension; details: cited from earlier work
[8] = inhaled or intranasal, IT (dry powder, normalized to 10 mg/kg)
[9] = inhaled or intranasal, IT (liquid, 10 mg/kg)
[10] = 101 mg/kg/day inhaled (dose lowered after day 1)
[11] = high dose group after lowering of dose, printed (76)
[12] = inhaled or intranasal, 90 ug/kg
[13] = inhaled or intranasal, 700 ug/kg

For `O=NO` [sodium nitrite], the “level of nitric oxide produced” value ([1]; 75 mg/mL sodium nitrite, 1.56 mM citric acid, […] sodium saccharin, pH 5.41 admixed dosing solution) was roughly 200 parts per billion, the “nitric oxide produced and released” value ([1]; aqueous sodium nitrite titrated with citric acid) was roughly 200 parts per billion and the “nitric oxide relative to same formulation lacking ascorbic acid” value ([1]; citric acid, pH ~5.5, 1:256 molar ratio ascorbic acid to nitrite) was roughly 4 fold. The “nitric oxide produced and released upon vibrating mesh nebulization” value ([1]; nitrite:ascorbic acid 256:1 mixture, Aeroneb Go Lab) was roughly 800 ppb, the “level of nitric oxide produced” value ([1]; same dosing solution in the absence of citric acid) was roughly 150 parts per billion and the “level of nitric oxide produced” value ([1]; same formulation with ascorbic acid) was roughly 800 parts per billion. For the same molecule, the AUC (in vivo [2]; [8]) was 4270 ng·h/mL, the AUC (in vivo [2]; [9]) was 2820 ng·h/mL and the Cmax (in vivo [2]; [8]) was 172 µM. It also gave a Cmax (in vivo [2]; [9]) of 164 µM, a half-life (in vivo [2]; [8]) of 19 min and a half-life (in vivo [2]; [9]) of 10 min. It also gave a Tmax (in vivo [2]; [8]) of 5 min, a Tmax (in vivo [2]; [9]) of 15 min and an AUC (in vivo [2]; iv, IV (10 mg/kg)) of 8120 ng·h/mL. The Cmax (in vivo [2]; iv, IV (10 mg/kg)) was 312 µM, the half-life (in vivo [2]; iv, IV (10 mg/kg)) was 20 min and the Tmax (in vivo [2]; iv, IV (10 mg/kg)) was 5 min. For the same molecule, the “Mortality (%) Female” value (Sprague-Dawley rats; 4 mg/kg/day inhaled) was 0%, the “Mortality (%) Male” value (Sprague-Dawley rats; 4 mg/kg/day inhaled) was 0% and the “Peak MetHgb (%) On Day 1 Female” value (Sprague-Dawley rats; 4 mg/kg/day inhaled) was 1.0 ± 0.1%. For the same molecule, the “Peak MetHgb (%) On Day 1 Male” value (Sprague-Dawley rats; 4 mg/kg/day inhaled) was 1.0 ± 0.0%, the “Peak MetHgb (%) On Day 7 Female” value (Sprague-Dawley rats; 4 mg/kg/day inhaled) was 1.3 ± 0.1% and the “Peak MetHgb (%) On Day 7 Male” value (Sprague-Dawley rats; 4 mg/kg/day inhaled) was 1.0 ± 0.0%. For the same molecule, the “Mortality (%) Female” value (Sprague-Dawley rats; 18 mg/kg/day inhaled) was 0%, the “Mortality (%) Male” value (Sprague-Dawley rats; 18 mg/kg/day inhaled) was 0% and the “Peak MetHgb (%) On Day 1 Female” value (Sprague-Dawley rats; 18 mg/kg/day inhaled) was 4.5 ± 1.2%. For the same molecule, the “Peak MetHgb (%) On Day 1 Male” value (Sprague-Dawley rats; 18 mg/kg/day inhaled) was 3.4 ± 0.3%, the “Peak MetHgb (%) On Day 7 Female” value (Sprague-Dawley rats; 18 mg/kg/day inhaled) was 3.8 ± 0.6% and the “Peak MetHgb (%) On Day 7 Male” value (Sprague-Dawley rats; 18 mg/kg/day inhaled) was 2.3 ± 0.2%. The “Peak MetHgb (%) On Day 1 Female” value (Sprague-Dawley rats; 101 mg/kg/day inhaled) was 50 ± 3.0%, the “Peak MetHgb (%) On Day 1 Male” value (Sprague-Dawley rats; 101 mg/kg/day inhaled) was 41 ± 3.3% and the “Mortality (%) Female” value (Sprague-Dawley rats; [10]) was 30%. For the same molecule, the “Mortality (%) Male” value (Sprague-Dawley rats; [10]) was 0%, the “% of particles < 3 μm” value (Sprague-Dawley rats; Group 2 Low Dose) was 97.6% and the MMAD (Sprague-Dawley rats; Group 2 Low Dose) was 1.0 μm. The “% of particles < 3 μm” value (Sprague-Dawley rats; Group 3 Mid Dose) was 87.6%, the MMAD (Sprague-Dawley rats; Group 3 Mid Dose) was 1.4 μm and the “% of particles < 3 μm” value (Sprague-Dawley rats; Group 4 High Dose) was 78.5%. For the same molecule, the MMAD (Sprague-Dawley rats; Group 4 High Dose) was 1.7 μm, the “Peak MetHgb (%) On Day 7 Female” value (Sprague-Dawley rats; [11]) was 36 ± 3.0 % and the “Peak MetHgb (%) On Day 7 Male” value (Sprague-Dawley rats; [11]) was 16 ± 4.7 %. For the same molecule, the “RV:LV + S” value ([3]; dry powder 1 μg/kg intratracheal) was 0.363 ± 0.029, the “RV:LV + S” value ([3]; dry powder 10 μg/kg intratracheal) was 0.328 ± 0.025 and the “decrease of RV:LV+S” value ([3]; high dose (10 μg/kg), p<0.05) was “up to 48%”. For the same molecule, the well tolerated doses [4] was “less than or equal to 125 mg”, the “Mortality (%) Female” value (beagle dogs; 2 mg/kg/day inhaled) was 0% and the “Mortality (%) Male” value (beagle dogs; 2 mg/kg/day inhaled) was 0%. The “Peak MetHgb (%) On Day 1 Female” value (beagle dogs; 2 mg/kg/day inhaled) was 0.35 ± 0.4%, the “Peak MetHgb (%) On Day 1 Male” value (beagle dogs; 2 mg/kg/day inhaled) was 0.2 ± 0.1% and the “Peak MetHgb (%) On Day 7 Female” value (beagle dogs; 2 mg/kg/day inhaled) was 0.2 ± 0.0%. The “Peak MetHgb (%) On Day 7 Male” value (beagle dogs; 2 mg/kg/day inhaled) was 0.2 ± 0.0%, the “Mortality (%) Female” value (beagle dogs; 12 mg/kg/day inhaled) was 0% and the “Mortality (%) Male” value (beagle dogs; 12 mg/kg/day inhaled) was 0%. For the same molecule, the “Peak MetHgb (%) On Day 1 Female” value (beagle dogs; 12 mg/kg/day inhaled) was 3.4 ± 1.3%, the “Peak MetHgb (%) On Day 1 Male” value (beagle dogs; 12 mg/kg/day inhaled) was 2.6 ± 0.5% and the “Peak MetHgb (%) On Day 7 Female” value (beagle dogs; 12 mg/kg/day inhaled) was 1.6 ± 0.2%. The “Peak MetHgb (%) On Day 7 Male” value (beagle dogs; 12 mg/kg/day inhaled) was 2.1 ± 0.5%, the “Mortality (%) Female” value (beagle dogs; 54 mg/kg/day inhaled) was 0% and the “Mortality (%) Male” value (beagle dogs; 54 mg/kg/day inhaled) was 0%. For the same molecule, the “Peak MetHgb (%) On Day 1 Female” value (beagle dogs; 54 mg/kg/day inhaled) was 19 ± 0.5%, the “Peak MetHgb (%) On Day 1 Male” value (beagle dogs; 54 mg/kg/day inhaled) was 16 ± 5.2% and the “Peak MetHgb (%) On Day 7 Female” value (beagle dogs; 54 mg/kg/day inhaled) was 17 ± 2.6%. For the same molecule, the “Peak MetHgb (%) On Day 7 Male” value (beagle dogs; 54 mg/kg/day inhaled) was 16 ± 3.2%, the “% of particles < 3 μm” value (beagle dogs; Group 2 Low Dose) was 86.2% and the MMAD (beagle dogs; Group 2 Low Dose) was 1.2 μm. The “% of particles < 3 μm” value (beagle dogs; Group 3 Mid Dose) was 73.9%, the MMAD (beagle dogs; Group 3 Mid Dose) was 1.7 μm and the “% of particles < 3 μm” value (beagle dogs; Group 4 High Dose) was 73.3%. For the same molecule, the MMAD (beagle dogs; Group 4 High Dose) was 1.9 μm, the “plasma nitrite, extrapolated” value [5] was roughly 0.1 µM and the AUC (in vivo [6]; [12]) was 15.8 ng·h/mL. The Cmax (in vivo [6]; [12]) was 1.8 µM, the Tmax (in vivo [6]; [12]) was 5 min and the half-life (in vivo [6]; [12]) was 4 min. It also gave an AUC (in vivo [6]; [13]) of 292 ng·h/mL, a Cmax (in vivo [6]; [13]) of 25.8 µM and a Tmax (in vivo [6]; [13]) of 5 min. For the same molecule, the half-life (in vivo [6]; [13]) was 10 min, the Cmax (in vivo [6]; other: intratracheal insufflation of dry powder, 10 ug/kg) was roughly 0.2 µM and the “NO in expired air, peak” value ([7]; after 20 minutes inhalation) was “approximately 15 ppb”. The “reduction in hypoxia-induced pulmonary hypertension compared with saline nebulization” value ([7]; newborn lambs, inhaled nitrite 15 mg/minute) was “approximately 65%”, the minimal effective dose ([7]; newborn lambs) was 1.5 mg/min and the “time reduction in PAP was maintained after cessation of inhalation” value ([7]; newborn lambs) was “at least 1 hour”. The “hypoxia-induced elevated PAP” value (Isolated rabbit lungs; 16.7 mg/mL sodium nitrite in phosphate buffer or phosphate/citric acid buffer, 5 min nebulization) was “significantly reduced”, the “expired nitric oxide compared to control” value (Isolated rabbit lungs; both sodium nitrite preparations (phosphate buffer; citric acid/phosphate buffer)) was “significantly increased” and the “lung-delivered dose up to which lung weights (edema) were stable” value (Isolated rabbit lungs; mg sodium nitrite (2.8 mg nitrite)) was “up to 4.2 mg”. For the same molecule, the “decrease of PAP compared with pre-drug hypoxic challenge” value (Isolated rabbit lungs; sodium nitrite in phosphate buffer or citric acid/phosphate buffer, nebulized during second hypoxic challenge (3% oxygen), p<0.05) was “over 50%” and the “half life of effect on hypoxia-induced PAP” value (Isolated rabbit lungs; sodium nitrite in phosphate buffer, nebulized during third hypoxic challenge) was roughly 10 min.
